The text below walks through data of ChEMBL document CHEMBL1131200, “Bis-quinolinium cyclophanes: 6,10-diaza-3(1,3),8(1,4)-dibenzena-1,5(1,4)- diquinolinacyclodecaphane (UCL 1684), the first nanomolar, non-peptidic blocker of the apamin-sensitive Ca(2+)-activated K+ channel” (J Med Chem, 1998).

The species named for assay [1] is Rattus norvegicus. In words: Compound was tested for SKCa blocking action by measuring its ability to inhibit after hyperpolarization (AHP) in cultured rat sympathetic neurones. It counts as functional. The following applies: Sympathetic neuron.
Assay [2] is filed under the species Rattus norvegicus. The assay can be described thus: The ratio of the conc of compound to dequalinium to cause 50% inhibition of the after hyperpolarization (AHP) in cultured rat sympathetic neurones. The class given is functional, Sympathetic neuron.

One may read the IC50 as the concentration that inhibits the measured activity by half. Higher therefore signals weaker potency. Molecule `c1ccc2c(c1)c1cc[n+]2Cc2ccc(cc2)C[n+]2ccc(c3ccccc32)NCc2ccc(cc2)CN1` returned an IC50 in assay [1] of 28 nM. Further, the EMR in assay [2] was 0.05.
The like results for `c1cc2cc(c1)CNc1cc[n+](c3ccccc13)Cc1ccc(cc1)C[n+]1ccc(c3ccccc31)NC2` were, in that order, 70 nM and 0.18.
The like results for `c1ccc2c(c1)c1cc[n+]2Cc2ccc(cc2)-c2ccc(cc2)C[n+]2ccc(c3ccccc32)NCc2ccc(cc2)Cc2ccc(cc2)CN1` were, in that order, 150 nM and 0.26.
The like results for `Cc1cc(N)c2ccccc2[n+]1CCCCCCCCCC[n+]1c(C)cc(N)c2ccccc21.[Cl-].[Cl-]` [DEQUALINIUM CHLORIDE] were, in that order, 570 nM and 1.
As to `c1cc2cc(c1)C[n+]1ccc(c3ccccc31)NCc1ccc(cc1)CNc1cc[n+](c3ccccc13)C2`, the IC50 in assay [1] was determined as 3 nM. Moreover, the EMR in assay [2] worked out at 0.01.
The like results for `c1ccc2c(c1)c1cc[n+]2Cc2ccc(cc2)Cc2ccc(cc2)C[n+]2ccc(c3ccccc32)NCc2ccc(cc2)-c2ccc(cc2)CN1` were, in that order, 280 nM and 0.8.
The like results for `c1ccc2c(c1)c1cc[n+]2Cc2ccc(cc2)Cc2ccc(cc2)C[n+]2ccc(c3ccccc32)NCc2ccc(cc2)Cc2ccc(cc2)CN1` were, in that order, 260 nM and 0.31.
The like results for `c1cc2cc(c1)CNc1cc[n+](c3ccccc13)Cc1cccc(c1)C[n+]1ccc(c3ccccc31)NC2` were, in that order, 130 nM and 0.22.
